# Measurements from article PMC6694155, “PTPσ inhibitors promote hematopoietic stem cell regeneration” (Nature Communications, 2019).
# “And” between values parts separate entries of the source, which are not always exact repeats. Equal values may be shown once. “Also recorded” adds a separate entry of the source.
# Experiments:
# adult C57BL/6 mice = assay: 30 day systemic treatment of non-irradiated mice (blood counts, BM HSC/progenitors, CFCs); assay type: in vivo, mouse
# Protocol: Femurs and tibiae were collected from killed C57BL/6 or Ptprs^−/− mice and flushed with IMDM containing 10% FBS and 1% penicillin–streptomycin for BM cells. PB was collected through sub-mandibular puncture. Cells were filtered through a 40 μM strainer and then treated with ACK lysis buffer (Sigma Aldrich) before antibody staining for flow cytometry. For KSL and CD150^+CD48^−KSL cell analysis, BM cells were stained with allophycocyanin (APC)-and Cy7-conjugated anti-mouse Sca1 (BD Biosciences, #560654, 1:100), phycoerythrin (PE)-conjugated anti-mouse c-kit (BD Biosciences, #553355, 1:100), V450 lineage cocktail (BD Biosciences, 561301, 1:10), Alexa Fluor 488-conjugated anti-mouse CD48 (BioLegend, #103414, 1:100), and Alexa Fluor 647-conjugated anti-mouse CD150 (Biolegend, #115918, 1:100) antibodies. For MEP, CMP, GMP, and CLP cell analysis, BM cells were stained with APC-Cy7-conjugated anti-mouse Sca1 (BD Biosciences, #560654, 1:100), PE-conjugated anti-mouse ckit (BD Biosciences, #553355, 1:100), V450 lineage cocktail (BD Biosciences, #561301; 1:10), Alexa Fluor 488-conjugated anti-mouse CD127 (BD Biosciences, #561533, 1:100), Alexa Fluor 647-conjugated anti-mouse CD34 (BD Biosciences, #560230; 1:100), and BV605-conjugated anti-mouse CD16/32 antibodies (BD Biosciences, #563006; 1:100). For donor engraftment analysis in transplanted mice, PB or BM cells were stained with BV605-conjugated anti-mouse CD45.2 (BioLegend, #109841, 1:100), fluorescein isothiocyanate (FITC)-conjugated anti-mouse CD45.1 (BD Biosciences, #553775, 1:100), PE-conjugated anti-mouse Mac-1 (BD Biosciences, #557397, 1:100) and anti-mouse Gr1 (BD Biosciences, #553128, 1:100), V450-conjugated anti-mouse CD3 (BD Biosciences, #561389, 1:100), and APC-Cy7-conjugated anti-mouse B220 (BD Biosciences, 552094, 1:100) antibodies.
# CFC assays (colony-forming unit-granulocyte monocyte), burst-forming unit-erythroid, and CFU-GEMM were performed using MethoCult GF M3434 (Stemcell Technologies)[6]. For all in vitro assays, BM CD34^−KSL cells, KSL cells, and Lin^− cells were cultured in TSF media (IMDM, 10% FBS, 1% pen-strep, 20 ng/mL recombinant mouse TPO, 125 ng/mL recombinant mouse SCF, 50 ng/mL recombinant mouse Flt3 ligand). Recombinant mouse SCF, Flt3 ligand, and TPO were purchased from R&D Systems. For competitive repopulation assays, BM cells were isolated from donor 10–12-week-old female CD45.2^+ mice. Recipient 10-week-old female CD45.1^+ B6.SJL mice were irradiated with 950 cGy TBI using a Cs137 irradiator and donor BM cells were administered via tail vein injection along with a competing dose of 1 × 10^5 non-irradiated host BM cells. Multilineage donor hematopoietic cell engraftment was measured in the PB by flow cytometry.
# [1] = biological target: T1, PTP1B (Protein Tyrosine Phosphatase 1B) (Homo sapiens, UniProt P18031); assay: PhosphataseProfiler screen: PTP1B; assay type: biochemical; settings: replicates
# T1 construct: purchased Eurofins Pharma Discovery Services UK
# T1 sequence (P18031 whole entry, species assumed): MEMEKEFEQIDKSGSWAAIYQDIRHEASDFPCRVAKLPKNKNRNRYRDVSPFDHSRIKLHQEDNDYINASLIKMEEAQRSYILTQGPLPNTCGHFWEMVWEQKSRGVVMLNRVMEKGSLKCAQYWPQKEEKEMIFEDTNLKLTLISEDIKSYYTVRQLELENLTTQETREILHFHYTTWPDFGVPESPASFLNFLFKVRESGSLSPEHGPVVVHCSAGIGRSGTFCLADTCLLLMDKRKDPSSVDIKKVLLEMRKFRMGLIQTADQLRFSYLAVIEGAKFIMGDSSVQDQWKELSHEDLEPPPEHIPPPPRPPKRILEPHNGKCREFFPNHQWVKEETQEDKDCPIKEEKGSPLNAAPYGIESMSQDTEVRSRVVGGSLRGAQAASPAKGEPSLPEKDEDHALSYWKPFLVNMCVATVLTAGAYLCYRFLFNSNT
# Protocol: Compound DJ001 was evaluated in a PhosphataseProfiler™ screen at 10 μM and 1 μM (2.7 μg/mL and 0.27 μg/mL) concentrations at Eurofins Pharma Discovery Services UK (Study number UK022-0004033) against a panel of 21 Phosphatases. In each experiment, the respective reference antagonist/agonist was tested directly with DJ001 and the data were compared with historical values determined at Eurofins. DJ001 compound inhibition was calculated as percentage inhibition of the enzymatic activity compared with control.
# BM KSL cells = assay: Cell cycle analysis (Ki67/7AAD) of BM KSL cells; assay type: cell-based, mouse; set-up: G0 / G1 / G2SM: unit not given here
# Protocol: Eight- to ten-week-old female C57BL/6 mice were irradiated with 500 cGy TBI followed by subcutaneous injections of 5 mg/kg DJ001 or vehicle, or 5 mg/kg DJ001 plus 40 mg/kg EHT1864. Twenty four hours after irradiation, mice were killed to collect BM cells for Annexin V apoptosis analysis. BM cells were stained with APC-Cy7-conjugated anti-mouse Sca1 (BD Biosciences, #560654, 1:100), PE-conjugated anti-ckit (BD Biosciences, #553355, 1:100), and V450 lineage cocktail (BD Biosciences, #561301, 1:10) antibodies for 30 min at 4 °C. Cells were then resuspended in 1× Annexin V binding buffer and then stained with FITC-conjugated anti-Annexin V antibody (BD Biosciences, #556547,1:50) and 7AAD antibody (BD Biosciences, #559925, 1:40)[68]. For in vitro human BM cell apoptosis assays, isolated human BM CD34^+ cells were plated into 96-well plates and then irradiated with 300 cGy. Immediately after irradiation, cells were treated with 5 μg/mL DJ001 or vehicle for 24 h and then collected for Annexin V cell apoptosis analysis. For cell cycle analysis, BM KSL cells were irradiated at 300 cGy and then treated with 1 μg/mL DJ001 or vehicle for 36 h. Subsequently, cells were resuspended in 200 μL of PBS, fixed with 1 mL of ice-cold fixation solution (0.25% Saponin, 2.5% PFA, 2% fetal calf serum (FCS) in PBS), and incubated for 30 min on ice. Cells were washed in Saponin buffer (0.25% Saponin, 2% FCS in PBS) and resuspended in 200 μL of Saponin buffer containing 20 μL of FITC-conjugated anti-Ki67 antibody (BD Biosciences, #556026, 1:10) and 1 μL of RNase (Qiagen, #19101, 100 mg/mL). After 30 min of incubation, cells were washed in Saponin buffer and resuspended for flow analysis in 200 μL of Saponin buffer containing 5 μL 7AAD (BD Biosciences, #559925, 1:40).
# [2] = 30 day treatment of non-irradiated mice, individual mice
# [3] = 30 day treatment of non-irradiated mice, replicates
# [4] = 36 h following 300 cGy, 1 μg/mL DJ001
# [5] = 36 h following 300 cGy, 1 µg/mL DJ001, 6 µg/mL EHT1864, 240 ng/mL SU9516
# [6] = cell cycle phase, Supplementary Figure 7h
smiles,measurement,setting,value
"O=C(/C=C\Nc1cccc([N+](=O)[O-])c1)c1ccccc1 [DJ001, (Z)-3-((3-nitrophenyl)amino)-1-phenylprop-2-en-1-one]",Supplementary Figure 3c (center left panel): blood counts,adult C57BL/6 mice; [2],0.82 and 1.16 and 1.29 and 0.87 and 1.1 and 1.4 and 0.98
same,Supplementary Figure 3c (center right panel): blood counts,adult C57BL/6 mice; [2],4.18 and 4.99 and 3.87 and 3.78 and 3.15 and 4.96 and 3.86
same,Supplementary Figure 3c (left panel): blood counts,adult C57BL/6 mice; [2],5.14 and 6.28 and 5.54 and 5.44 and 4.5 and 5.46 and 7.08
same,Supplementary Figure 3c (right panel): blood counts,adult C57BL/6 mice; [2],982 and 1048 and 1026 and 1004 and 1184 and 1209 and 1110
same,Supplementary Figure 3d (center panel): BM HSC/progenitors,adult C57BL/6 mice; [2],3.5181 and 6.1488 and 9.9568 and 8.316 and 4.0147 and 7.046 and 6.2794
same,Supplementary Figure 3d (left panel): BM HSC/progenitors,adult C57BL/6 mice; [2],1.912 and 2.52 and 3.92 and 3.024 and 2.624 and 2.168 and 3.376
same,Supplementary Figure 3d (right panel): BM HSC/progenitors,adult C57BL/6 mice; [2],3.375 and 1.086 and 2.798 and 5.06 and 3.054 and 1.789 and 4.039
same,Supplementary Figure 3e: BFU-E,adult C57BL/6 mice; [3],0
same,Supplementary Figure 3e: CFU-GEMM,adult C57BL/6 mice; [3],0 (3×) and 1 (2×) and 2
same,Supplementary Figure 3e: CFU-GM,adult C57BL/6 mice; [3],10 and 7 and 8 and 6 (2×) and 9
same,"complete blood counts, BM HSC or progenitor cell content, BM CFCs vs vehicle","adult C57BL/6 mice; non-irradiated mice, 5 mg/kg subcutaneously every other day for 30 days, 5 mg/kg","no significant changes; also recorded: caused no expansion of HSCs, progenitors, or mature blood counts"
same,Supplementary Figure 1: PTP1B activity,[1]; 0.27 μg/mL DJ001,97 and 90 and 91
same,Supplementary Figure 1: PTP1B activity,[1]; 2.7 μg/mL DJ001,96 and 86 and 90
same,percentage of KSL cells in G2/S/M phase vs control,BM KSL cells; 36 h following 300 cGy,significantly increased the percentage of KSL cells in G2/S/M phase
same,"percentages of KSL cells in G0, per replicate (Figure 4a)",BM KSL cells; [4],10.898% and 7.091% and 6.413% and 9.19% and 8.538% and 7.981% and 5.757%
same,"percentages of KSL cells in G1, per replicate (Figure 4a)",BM KSL cells; [4],51.766% and 62.582% and 57.686% and 51.047% and 60.936% and 51.069% and 57.668%
same,"percentages of KSL cells in G2SM, per replicate (Figure 4a)",BM KSL cells; [4],36.781% and 29.964% and 35.471% and 38.731% and 30% and 39.75% and 36.236%
same,"percentages of BM cells in G0, per replicate (Figure 4d bottom left panel)",BM KSL cells; [5],12% and 10% and 8% and 4% and 11%
same,"percentages of BM cells in G1, per replicate (Figure 4d bottom center panel)",BM KSL cells; [5],52% and 54% and 51% and 48%
same,"percentages of BM cells in G2/S/M, per replicate (Figure 4d bottom right panel)",BM KSL cells; [5],35% and 40% and 41% and 39%
same,G0,BM KSL cells; [6],17.593 and 13.329 and 15.794 and 18.75 and 23.139 and 16.263 and 18.5
same,G1,BM KSL cells; [6],51.409 and 55.557 and 49.648 and 46.611 and 42.434 and 51.122 and 52.817
same,G2SM,BM KSL cells; [6],27.738 and 29.087 and 32.369 and 30.422 and 28.183 and 29.707 and 25.745
